The source made the active and inactive calls. The rule behind the calls is not given here.
Experiments:
[1] = system: ECa-109 cell line; assay: Antiproliferative activity against human Eca-109 cells measured after 72 hrs by MTT assay; format: functional, cell-based; conditions: ECa-109, 72 h
[2] = system: MGC-803; assay: cells; conditions: Homo sapiens, MGC-803, 72 h
Description: Antiproliferative activity against human MGC-803 cells measured after 72 hrs by MTT assay

[3] = system: PC-3; assay: Antiproliferative activity against human PC-3 cells measured after 72 hrs by MTT assay; format: functional, cell-based; conditions: PC-3, 72 h
[4] = system: MCF7; assay: cells; conditions: Homo sapiens, MCF7, 72 h
Description: Antiproliferative activity against human MCF7 cells measured after 72 hrs by MTT assay

[5] = Induction of NO release in phosphate buffer containing excess L-cysteine measured up to 14 hrs by Griess assay; format: functional
[6] = system: MGC-803; assay: Induction of apoptosis in human MGC-803 cells assessed as viable cells at 0.5 uM by Annexin V-FITC/PI staining based flow cytometric analysis (reference value: 94.4%); format: functional; conditions: read-out: Activity
[7] = system: MGC-803; assay: Induction of apoptosis in human MGC-803 cells assessed as necrotic cells at 1 uM by Annexin V-FITC/PI staining based flow cytometric analysis (reference value: 0.69%); format: functional
[8] = system: MGC-803; assay: Induction of apoptosis in human MGC-803 cells assessed as early apoptotic cells at 0.5 uM by Annexin V-FITC/PI staining based flow cytometric analysis (reference value: 2.79%); format: functional
[9] = system: MGC-803; assay: Induction of cell cycle arrest in human MGC-803 cells assessed as accumulation of cells at S phase at 0.5 uM incubated for 24 hrs by PI staining based flow cytometry analysis (reference value: 29.00 %); format: functional
[10] = system: MGC-803; assay: Induction of apoptosis in human MGC-803 cells assessed as early apoptotic cells at 2 uM by Annexin V-FITC/PI staining based flow cytometric analysis (reference value: 2.79%); format: functional
[11] = system: MGC-803; assay: Induction of apoptosis in human MGC-803 cells assessed as necrotic cells at 2 uM by Annexin V-FITC/PI staining based flow cytometric analysis (reference value: 0.69%); format: functional
[12] = system: MGC-803; assay: Antiproliferative activity against human MGC-803 assessed as reduction in cell survival measured after 24 hrs in presence of NO scavenger hemoglobin at 1 to 20 uM by MTT assay; format: functional, cell-based
[13] = system: MGC-803; assay: Induction of cell cycle arrest in human MGC-803 cells assessed as accumulation of cells at G0/G1 phase at 2 uM incubated for 24 hrs by PI staining based flow cytometry analysis (reference value: 56.68 %); format: functional
[14] = system: MGC-803; assay: Induction of morphological changes in human MGC-803 cells assessed as appearance of dense and concentrated granules at 0.5 to 2 uM for 48 hrs by DAPI staining based fluorescence microscopy; format: functional, cell-based; conditions: dose 0.5-2 µM
[15] = system: MGC-803; assay: Induction of apoptosis in human MGC-803 cells assessed as late apoptotic cells at 1 uM by Annexin V-FITC/PI staining based flow cytometric analysis (reference value: 2.14 %); format: functional
[16] = system: MGC-803; assay: Antiproliferative activity against human MGC-803 cells assessed as decrease in number of colonies by crystal violet staining based assay; format: functional, cell-based; conditions: dose 0.5-2 µM
[17] = system: MGC-803; assay: Induction of morphological changes in human MGC-803 cells assessed as nuclear condensation at 0.5 to 2 uM incubated for 48 hrs by DAPI staining based fluorescence microscopy; format: functional, cell-based; conditions: dose 0.5-2 µM
[18] = system: MGC-803; assay: Induction of apoptosis in human MGC-803 cells assessed as viable cells at 1 uM by Annexin V-FITC/PI staining based flow cytometric analysis (reference value: 94.4%); format: functional; conditions: read-out: Activity
[19] = system: MGC-803; assay: Induction of cell cycle arrest in human MGC-803 cells assessed as accumulation of cells at G2/M phase at 2 uM incubated for 24 hrs by PI staining based flow cytometry analysis (reference value: 14.32 %); format: functional
[20] = system: MGC-803; assay: Antiproliferative activity against human MGC-803 assessed as cell survival by MTT assay relative to control; format: functional
[21] = system: MGC-803; assay: Induction of apoptosis in human MGC-803 cells assessed as necrotic cells at 0.5 uM by Annexin V-FITC/PI staining based flow cytometric analysis (reference value: 0.69%); format: functional
[22] = system: MGC-803; assay: Induction of apoptosis in human MGC-803 cells assessed as late apoptotic cells at 2 uM by Annexin V-FITC/PI staining based flow cytometric analysis (reference value: 2.14 %); format: functional
[23] = system: MGC-803; assay: Induction of cell cycle arrest in human MGC-803 cells assessed as accumulation of cells at G0/G1 phase at 1 uM incubated for 24 hrs by PI staining based flow cytometry analysis (reference value: 56.68 %); format: functional
[24] = system: MGC-803; assay: Induction of apoptosis in human MGC-803 cells by Annexin V-FITC/PI staining based flow cytometric analysis; format: functional, cell-based; conditions: dose 0.5-2 µM
[25] = system: MGC-803; assay: Induction of morphological changes in human MGC-803 cells assessed as appearance of broken cell at 0.5 to 2 uM incubated for 48 hrs by DAPI staining based fluorescence microscopy; format: functional; conditions: dose 0.5-2 µM
[26] = system: MGC-803; assay: Induction of apoptosis in human MGC-803 cells assessed as viable cells at 2 uM by Annexin V-FITC/PI staining based flow cytometric analysis (reference value: 94.4%); format: functional; conditions: read-out: Activity
[27] = system: MGC-803; assay: Induction of cell cycle arrest in human MGC-803 cells assessed as accumulation of cells at S phase at 1 uM incubated for 24 hrs by PI staining based flow cytometry analysis (reference value: 29.00 %); format: functional
[28] = system: MGC-803; assay: Induction of cell cycle arrest in human MGC-803 cells assessed as accumulation of cells at G2/M phase at 0.5 uM incubated for 24 hrs by PI staining based flow cytometry analysis (reference value: 14.32 %); format: functional
[29] = system: MGC-803; assay: Antiproliferative activity against human MGC-803 cells assessed as reduction in colony area at 0.5 to 2 uM by crystal violet staining based assay; format: functional, cell-based; conditions: dose 0.5-2 µM
[30] = system: MGC-803; assay: Induction of reactive oxygen species generation in human MGC-803 cells by DCFH-DA staining fluorescence assay; format: functional, cell-based; conditions: dose 0.5-2 µM
[31] = system: MGC-803; assay: Induction of cell cycle arrest in human MGC-803 cells assessed as accumulation of cells at G2/M phase at 1 uM incubated for 24 hrs by PI staining based flow cytometry analysis (reference value: 14.32 %); format: functional
[32] = system: MGC-803; assay: Induction of apoptosis in human MGC-803 cells assessed as late apoptotic cells at 0.5 uM by Annexin V-FITC/PI staining based flow cytometric analysis (reference value: 2.14 %); format: functional
[33] = system: MGC-803; assay: Induction of apoptosis in human MGC-803 cells assessed as early apoptotic cells at 1 uM by Annexin V-FITC/PI staining based flow cytometric analysis (reference value: 2.79%); format: functional
[34] = system: MGC-803; assay: Induction of cell cycle arrest in human MGC-803 cells assessed as accumulation of cells at G0/G1 phase at 0.5 uM incubated for 24 hrs by PI staining based flow cytometry analysis (reference value: 56.68 %); format: functional
[35] = system: MGC-803; assay: Induction of cell cycle arrest in human MGC-803 cells assessed as accumulation of cells at S phase at 2 uM incubated for 24 hrs by PI staining based flow cytometry analysis (reference value: 29.00 %); format: functional
[36] = system: MGC-803; assay: Induction of morphological changes in human MGC-803 cells assessed as nuclear shrinkage at 0.5 to 2 uM incubated for 48 hrs by DAPI staining based fluorescence microscopy; format: functional, cell-based; conditions: dose 0.5-2 µM
[37] = molecular target: T1, Tyrosine-protein kinase JAK3 (Homo sapiens, UniProt P52333); assay: biochemical; format: cell-based, Sf9
T1 sequence (P52333 whole entry): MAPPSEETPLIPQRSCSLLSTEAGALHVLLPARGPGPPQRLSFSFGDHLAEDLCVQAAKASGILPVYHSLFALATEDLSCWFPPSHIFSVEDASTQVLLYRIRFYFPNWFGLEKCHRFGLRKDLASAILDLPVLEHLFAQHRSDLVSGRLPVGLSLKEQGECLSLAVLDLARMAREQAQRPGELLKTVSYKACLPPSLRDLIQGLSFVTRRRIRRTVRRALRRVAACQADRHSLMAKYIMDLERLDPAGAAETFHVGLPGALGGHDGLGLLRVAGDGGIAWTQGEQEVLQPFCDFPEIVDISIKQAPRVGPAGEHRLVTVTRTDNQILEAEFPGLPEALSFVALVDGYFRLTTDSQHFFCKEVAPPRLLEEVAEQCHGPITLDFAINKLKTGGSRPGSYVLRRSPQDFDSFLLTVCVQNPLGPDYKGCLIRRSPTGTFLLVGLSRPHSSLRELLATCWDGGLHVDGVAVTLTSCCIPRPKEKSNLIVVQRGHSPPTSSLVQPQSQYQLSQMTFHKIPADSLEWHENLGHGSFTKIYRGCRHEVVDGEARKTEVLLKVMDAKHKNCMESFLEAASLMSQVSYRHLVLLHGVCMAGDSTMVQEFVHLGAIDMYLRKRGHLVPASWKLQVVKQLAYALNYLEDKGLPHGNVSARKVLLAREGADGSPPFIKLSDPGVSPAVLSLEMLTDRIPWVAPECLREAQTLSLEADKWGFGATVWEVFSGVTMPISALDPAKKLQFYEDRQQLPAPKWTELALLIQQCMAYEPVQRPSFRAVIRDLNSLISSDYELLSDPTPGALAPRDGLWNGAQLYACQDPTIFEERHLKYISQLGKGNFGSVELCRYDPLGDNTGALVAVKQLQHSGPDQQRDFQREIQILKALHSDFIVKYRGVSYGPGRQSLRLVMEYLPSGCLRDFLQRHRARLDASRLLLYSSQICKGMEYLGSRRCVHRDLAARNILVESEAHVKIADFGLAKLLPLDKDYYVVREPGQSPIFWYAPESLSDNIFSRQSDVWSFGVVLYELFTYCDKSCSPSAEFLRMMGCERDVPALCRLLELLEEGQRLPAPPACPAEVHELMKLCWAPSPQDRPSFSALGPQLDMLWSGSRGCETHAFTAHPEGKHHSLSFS
Description: Inhibition of recombinant human N-terminal GST-tagged JAK3 (781 to end residues) expressed in baculovirus infected Sf9 cells using poly (Glu,Tyr) 4:1 as substrate incubated for 60 mins in presence of ATP by ADP-Glo kinase assay

## N#Cc1c(Nc2ccc(Cl)cc2)nc(SCC(=O)N2CCN(CCOc3no[n+]([O-])c3S(=O)(=O)c3ccccc3)CC2)nc1-c1ccccc1
[1]
  IC50: 3.01 µM
[2]
  IC50: 2.05 µM
[3]
  IC50: 2.08 µM
[4]
  IC50: 3.04 µM
[5]
  Activity: Active

## COc1cc(Nc2nc(SCC(=O)N3CCN(CCOc4no[n+]([O-])c4S(=O)(=O)c4ccccc4)CC3)nc(-c3ccccc3)c2C#N)cc(OC)c1OC
[6]
  viability at 0.5 µM: 75.2%
[7]
  Activity: 3.21%
[8]
  Activity: 6.5%
[9]
  Activity: 24.83%
[10]
  Activity: 10.4%
[1]
  IC50: 2.21 µM
[11]
  Activity: 2.69%
[2]
  IC50: 0.95 µM
[12]
  Activity: inactive
[13]
  Activity: 74.33%
[14]
  Activity: Active
[15]
  Activity: 24%
[16]
  Activity: Dose-Dependent Effect
[3]
  IC50: 1.14 µM
[17]
  Activity: Active
[18]
  viability at 1 µM: 65.1%
[19]
  Activity: 10.4%
[20]
  Activity: 20%
[4]
  IC50: 2.03 µM
[21]
  Activity: 3.22%
[22]
  Activity: 28.7%
[23]
  Activity: 65.87%
[24]
  Activity: Dose-Dependent Effect
[25]
  Activity: Active
[26]
  viability at 2 µM: 58.3%
[27]
  Activity: 19.71%
[5]
  Activity: Active
[28]
  Activity: 14.58%
[29]
  Activity: Active
[30]
  Activity: Dose-Dependent Effect
[31]
  Activity: 14.43%
[32]
  Activity: 15.1%
[33]
  Activity: 7.71%
[34]
  Activity: 60.59%
[35]
  Activity: 15.27%
[36]
  Activity: Active

## N#Cc1ccccc1Nc1nc(Nc2ccc(NC(=O)CN3CCOCC3)cc2)ncc1Cl
[37]
  IC50: 0.0207 µM

## N#Cc1c(-c2ccccc2)nc(SCC(=O)N2CCN(CCOc3no[n+]([O-])c3S(=O)(=O)c3ccccc3)CC2)nc1N1CCOCC1
[1]
  IC50: 6.92 µM
[2]
  IC50: 8.13 µM
[3]
  IC50: 6.98 µM
[4]
  IC50: 8.95 µM
[5]
  Activity: Active

## N#Cc1c(Nc2ccc(F)c(Cl)c2)nc(SCC(=O)N2CCN(CCOc3no[n+]([O-])c3S(=O)(=O)c3ccccc3)CC2)nc1-c1ccccc1
[1]
  IC50: 2.81 µM
[2]
  IC50: 1.07 µM
[3]
  IC50: 1.97 µM
[4]
  IC50: 3.36 µM

— ChEMBL document CHEMBL5365407, “Design, synthesis and biological evaluation of nitric oxide-releasing 5-cyano-6-phenyl-2, 4-disubstituted pyrimidine derivatives” (Bioorg Med Chem Lett, 2023)
